BindingDB's records for doi:10.1021/acsmedchemlett.0c00444 (Virginia Commonwealth University, 2020)

assay: Inhibition of HIV1 3B reverse transcriptase infected in human GHOST CXCR4 cells assessed as reduction in viral replication incubated for 60 to 90 mins in presence of DTT and TTP by liquid scintillation counter

Compound	EC50
CC1(C)CN2C(CS/C(N)=N\[C@H]3CC[C@H](CNC(=O)COCC(=O)NCCCCNC(=O)COCC(=O)N[C@@H]4CC[C@@]5(O)[C@H]6Cc7ccc(O)c8c7[C@@]5(CCN6CC5CC5)[C@H]4O8)CC3)=CSC2=N1	960 nM
CNC(=O)COCC(=O)NCCCCNC(=O)COCC(=O)NC[C@H]1CC[C@H](/N=C(\NC2CCCCC2)SCC2=CSC3=NC(C)(C)CN23)CC1	144000 nM
CC1(C)CN2C(CS/C(=N\C3CCCCC3)NC3CCCCC3)=CSC2=N1 [(6,6-dimethyl-5,6-dihydroimidazo[2,1-b][1,3]thiazol-3-yl)methyl N,N'-dicyclohexylimidothiocarbamate]	22 nM
